The record followed here is patent EP0683169A1, “8-Amino-pyrido 1,2,3-de 1,3,4 benzoxadiazine derivatives, and antibacterial agents containing them” (BAYER AG, priority 1994, dated 1995).

Test in all cases: MIC (MHK) by agar serial dilution on Iso-Sensitest agar
Format in all cases: cell-based

In assay [1] the test system is E. coli ATCC 25922. The settings on record: Escherichia coli, ATCC25922, strain ATCC 25922, ca. 10⁴ colony-forming particles per spot, 37°C, ca. 20 h, read-out: MHK-Werte. The source says: (§1) Die minimalen Hemmkonzentrationen (MHK) der erfindungsgemäßen Verbindungen wurden per Reihenverdünnungsverfahren auf Iso-Sensitest Agar (Oxoid) bestimmt. Für jede Prüfsubstanz wurde eine Reihe von Agarplatten hergestellt, die bei jeweils doppelter Verdünnung abfallende Konzentrationen des Wirkstoffs enthielten. Die Agarplatten wurden mit einem Multipoint-Inokulator (Denley) beimpft. Zum Beimpfen wurden Übernachtkulturen der Erreger verwandt, die zuvor so verdünnt wurden, daß jeder Impfpunkt ca. 10⁴ koloniebildende Partikel enthielt. Die beimpften Agarplatten wurden bei 37°C bebrütet, und das Keimwachstum wurde nach ca. 20 Stunden abgelesen. Der MHK-Wert (µg/ml) gibt die niedrigste Wirkstoffkonzentration an, bei der mit bloßem Auge kein Wachstum zu erkennen war.
(§2) In der nachstehenden Tabelle sind die MHK-Werte einiger der erfindungsgemäßen Verbindungen aufgeführt. Tabelle

For assay [2], the system named is Klebsiella pneumoniae 8085. The settings on record: strain 8085, ca. 10⁴ colony-forming particles per spot, 37°C, ca. 20 h, read-out: MHK-Werte.
From the text: as §1, §2

In assay [3] the test system is Micrococcus luteus 9341. The note with it: strain 9341, ca. 10⁴ colony-forming particles per spot, 37°C, ca. 20 h, read-out: MHK-Werte.
From the text: as §1, §2

The subject of assay [4] is E. coli Neumann. The settings on record: Escherichia coli, strain Neumann, ca. 10⁴ colony-forming particles per spot, 37°C, ca. 20 h, read-out: MHK-Werte.
From the text: as §1, §2

In assay [5] the test system is Acinetobacter 14068. The settings on record: strain 14068, ca. 10⁴ colony-forming particles per spot, 37°C, ca. 20 h, read-out: MHK-Werte.
From the text: as §1, §2

≈ marks a conversion by molar mass, not a printed value.

For the molecule `CC1CN(c2c(F)c(N)c3c(=O)c(C(=O)O)cn4c3c2OCN4C)CCN1` (centres unmarked) [Beispiel 3, 8-Amino-9-fluor-3-methyl-10-(3-methyl-1-piperazinyl)-7-oxo-2,3-dihydro-7H-pyrido[1,2,3-d,e][1,3,4]benzoxadiazin-6-carbonsäure], the MIC was 0.06 µg/mL (≈ 0.159 µM) in assay [1]; 0.12 µg/mL (≈ 0.318 µM) in assay [2]; 0.015 µg/mL (≈ 0.0397 µM) in assay [3]; 0.06 µg/mL (≈ 0.159 µM) in assay [4]; 0.015 µg/mL (≈ 0.0397 µM) in assay [5].
In the case of `CN1COc2c(N3CCC(O)C3)c(F)c(N)c3c(=O)c(C(=O)O)cn1c23` (centres unmarked) [Beispiel 5, 8-Amino-9-fluor-3-methyl-10-(3-hydroxy-1-pyrrolidinyl)-7-oxo-2,3-dihydro-7H-pyrido[1,2,3-d,e][1,3,4]benzoxadiazin-6-carbonsäure], the MIC in assay [1] is 0.03 µg/mL (≈ 0.0823 µM); in assay [2] it was 0.25 µg/mL (≈ 0.686 µM); in assay [3], 0.015 µg/mL (≈ 0.0412 µM); in assay [4], 0.015 µg/mL (≈ 0.0412 µM); in assay [5], 0.015 µg/mL (≈ 0.0412 µM).
In the case of `CN1C[C@@H]2C[C@H]1CN2c1c(F)c(N)c2c(=O)c(C(=O)O)cn3c2c1OCN3C` [Beispiel 10], the MIC came out at 0.06 µg/mL (≈ 0.154 µM) in assay [1]; 0.12 µg/mL (≈ 0.308 µM) in assay [2]; 0.015 µg/mL (≈ 0.0385 µM) in assay [3]; 0.06 µg/mL (≈ 0.154 µM) in assay [4]; 0.015 µg/mL (≈ 0.0385 µM) in assay [5].
On to `CN1CCN(c2c(F)c(N)c3c(=O)c(C(=O)O)cn4c3c2OCN4C)CC1` [Beispiel 2, 8-Amino-9-fluor-3-methyl-10-(4-methyl-1-piperazinyl)-7-oxo-2,3-dihydro-7H-pyrido[1,2,3-d,e][1,3,4]benzoxadiazin-6-carbonsäure], for which the MIC worked out at 0.015 µg/mL (≈ 0.0397 µM) in assay [1]; 0.06 µg/mL (≈ 0.159 µM) in assay [2]; 0.015 µg/mL (≈ 0.0397 µM) in assay [3]; 0.015 µg/mL (≈ 0.0397 µM) in assay [4]; 0.015 µg/mL (≈ 0.0397 µM) in assay [5].
